From patent publication US5114918A, “Endothelin antagonistic cyclic pentapeptides” (Banyu Pharmaceutical Co., Ltd., priority 1989, dated 1992)
Numbered stars: 1 amine (or outer) side, 2 acyl side, 3 side chain; on linkers, the order of the positions; unused ones are H or OH. Square brackets hold non-standard residues; d marks the D form. Peptide text beside a SMILES is read from it. * marks the point of attachment. X3 = NC(=O)Cn1cc(C[C@@H](N[*:1])C(=O)[*:2])c2ccccc21; Gly(N-CH2CH2-imidazol-4-yl) = O=C(O)CNCCc1c[nH]cn1; X4 = O=C1Nc2ccccc2C1C[C@@H](N[*:1])C(=O)[*:2]; dGly(2-thienyl) = N[C@@H](C(=O)O)c1cccs1; X5 = O=C([C@H](N[*:1])C1=CCC=CC1)[*:2]; NMeL = CN[C@@H](CC(C)C)C(=O)O; N(iPr)Gly = CC(C)NCC(=O)O; Pip = O=C(O)[C@@H]1CCCCN1; dNva = CCC[C@@H](N)C(=O)O; Thz = O=C(O)[C@@H]1CSCN1; Nva = CCC[C@H](N)C(=O)O; Aib = CC(C)(N)C(=O)O; Sar = CNCC(=O)O; Moc = COC(=O)*

Biological target: T1, endothelin receptor (membrane of smooth muscle tissue of porcine aorta) (Sus scrofa, UniProt Q29010)
T1 construct: from tissue; host or cells: smooth muscle tissue of porcine aorta (membrane fraction)
T1 sequence (Q29010 21-427): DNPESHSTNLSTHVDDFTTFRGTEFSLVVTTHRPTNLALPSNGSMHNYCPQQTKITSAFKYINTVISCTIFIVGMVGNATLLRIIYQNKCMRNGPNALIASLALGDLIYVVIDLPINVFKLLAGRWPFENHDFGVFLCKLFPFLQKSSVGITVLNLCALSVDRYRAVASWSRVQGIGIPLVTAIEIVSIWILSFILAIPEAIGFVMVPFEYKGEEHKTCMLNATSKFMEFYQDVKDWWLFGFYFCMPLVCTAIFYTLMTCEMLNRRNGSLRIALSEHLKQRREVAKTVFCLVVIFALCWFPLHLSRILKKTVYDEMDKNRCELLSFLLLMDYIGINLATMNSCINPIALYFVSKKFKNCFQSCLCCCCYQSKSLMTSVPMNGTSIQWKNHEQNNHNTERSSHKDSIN
Assay: Endothelin binding inhibition test (125I-endothelin-1, porcine aorta smooth muscle membrane)
Conditions: 1.1 μM of the test compound, porcine aorta smooth muscle membrane, 25° C, 4 hours; for inhibition at 1.1 µM: read-out: 125I-endothelin-1 binding inhibition, Inhibition (%)
Description: Endothelin binding inhibition test
The smooth muscle tissue of porcine aorta was homogenized in a buffer solution of 10 mM MOPS, pH 7.4, at 4° C. by a polytron. To the homogenate, sucrose was added to a concentration of 20%, and the mixture was centrifuged at 1,000×g for 15 minutes, and the supernatant was further centrifuged at 10,000×g for 15 minutes. The supernatant thereof was further centrifuged at 90,000×g for 40 minutes. The membrane precipitate thereby obtained was suspended in a buffer solution of 5 mM HEPES/Tris, pH 7.4, at a concentration of 25 mg/ml.
Then, 16 μl of this membrane suspension was added to 340 μl of 50 mM Tris/HCl buffer, pH 7.4, containing 10 μM calcium chloride, 10 μM magnesium chloride, 0.1 mM PMSF, 1 μM pepstatin A, 2 μM leupeptin, 1 mM 1,10-phenanthroline and 0.1% bovine serum albumin. To this suspension, 4 μl of (A) endothelin-1 (for nonspecific binding: 0.2 μM as the final concentration), (B) buffer solution A (for total control binding), or (C) a test compound (1.1 μM as the final concentration), was added. Further, to each suspension, 40 μl of ^125 I-endothelin-1 (12000-18000 cpm) was added. These mixtures were incubated at 25° C for 4 hours, then subjected to filtration on a glass filter GF/C and then washed with 5 mM HEPES/Tris, pH 7.4, containing 0.3% bovine serum albumin. Then, the radioactivity trapped by the glass filter was measured, and the ^125 I-endothelin-1 binding inhibition D (%) at 1.1 μM of the test compound was determined by the following equation. [formula] Each test was performed in triplicate.

inhibition at 1.1 µM | 125I-endothelin-1 binding inhibition, Inhibition (%) | Compound
85% | – | CC(C)C[C@@H]1NC(=O)[C@@H](c2cccs2)NC(=O)CN(C(C)C)C(=O)[C@@H](CC(=O)O)NC(=O)[C@@H](Cc2c[nH]c3ccccc23)NC1=O [Example 78, cyclo(-DTrp-DAsp-^i PrGly-DThg-Leu-)] (cyclo(L[dW][dD][N(iPr)Gly][dGly(2-thienyl)]))
– | 80% | cyclo(-DTrp-DAsp-Pro-DtertLeu-Leu-) [Example 71]
66% | – | CC[C@H](C)[C@@H]1NC(=O)[C@@H](C(C)C)NC(=O)[C@@H]2CCCN2C(=O)[C@@H](CC(=O)O)NC(=O)[C@@H](Cc2c[nH]c3ccccc23)NC1=O [Example 40, cyclo(-DTrp-DAsp-Pro-DVal-Ile-)] (cyclo(I[dW][dD]P[dV]))
30% | – | CC(C)C[C@@H]1NC(=O)[C@@H](C(C)C)NC(=O)[C@H](CC(=O)O)NC(=O)[C@@H](CCC(=O)O)NC(=O)[C@@H](Cc2c[nH]c3ccccc23)NC1=O [Example 9, cyclo(-DTrp-DGlu-Asp-DVal-Leu-)] (cyclo(D[dV]L[dW][dE]))
27% | – | CC(C)C[C@@H]1NC(=O)[C@@H](C(C)C)NC(=O)[C@H](C)NC(=O)[C@@H](CCC(=O)O)NC(=O)[C@@H](Cc2c[nH]c3ccccc23)NC1=O [Example 7, cyclo(-DTrp-DGlu-Ala-DVal-Leu-)] (cyclo(A[dV]L[dW][dE]))
78% | – | CC(C)C[C@@H]1NC(=O)[C@@H](C(C)C)NC(=O)[C@@H]2CCCN2C(=O)[C@@H](CC(=O)O)NC(=O)[C@@H](CC2C(=O)Nc3ccccc32)NC1=O (stereo partly drawn) [Example 88, cyclo(-DTrp(O)-Dsp-Pro-DVal-Leu-)] (cyclo(L[X4][dD]P[dV]))
89% | – | CC(C)C[C@@H]1NC(=O)[C@@H](C2=CCC=CC2)NC(=O)[C@@H]2CCCN2C(=O)[C@@H](CC(=O)O)NC(=O)[C@@H](Cc2c[nH]c3ccccc23)NC1=O [Example 74, cyclo(-DTrp-DAsp-Pro-DDpg-Leu-)] (cyclo(L[dW][dD]P[X5]))
75% | – | CC(C)C[C@@H]1NC(=O)[C@@H](C(C)C)NC(=O)[C@H](Cc2c[nH]c3ccccc23)NC(=O)[C@@H](CC(=O)O)NC(=O)[C@@H](Cc2c[nH]c3ccccc23)NC1=O [Example 17, cyclo(-DTrp-DAsp-Trp-DVal-Leu-)] (cyclo(L[dW][dD]W[dV]))
51% | – | CC(C)C[C@@H]1NC(=O)[C@@H](CC(C)C)NC(=O)[C@H](C)NC(=O)[C@@H](CC(=O)O)NC(=O)[C@@H](Cc2c[nH]c3ccccc23)NC1=O [Example 28, cyclo(-DTrp-DAsp-Ala-DLeu-Leu-)] (cyclo(A[dL]L[dW][dD]))
– | 85% | cyclo(-DTrp-DCys(O3 Na)-Pro-DaIle-Leu-) [Example 43]
71% | – | CC(C)C[C@@H]1NC(=O)[C@@H](C(C)C)NC(=O)[C@H](Cc2ccccc2)NC(=O)[C@@H](CC(=O)O)NC(=O)[C@@H](Cc2c[nH]c3ccccc23)NC1=O [Example 48, cyclo(-DTrp-DAsp-Phe-DVal-Leu-)] (cyclo(F[dV]L[dW][dD]))
82% | – | CC(C)C[C@@H]1NC(=O)[C@@H](c2cccs2)NC(=O)CN(CC(=O)O)C(=O)[C@@H](CC(=O)O)NC(=O)[C@@H](Cc2c[nH]c3ccccc23)NC1=O [Example 83, cyclo(-DTrp-DAsp-CmGly-DThg-Leu-)]
72% | – | CC(C)C[C@@H]1NC(=O)[C@@H](CC(=O)O)NC(=O)[C@@H](Cc2c[nH]c3ccccc23)NC(=O)[C@H](CC(C)C)NC(=O)[C@@H](C(C)C)NC1=O [Example 6, cyclo(-DTrp-DAsp-Leu-DVal-Leu-)] (cyclo(L[dV]L[dW][dD]))
89% | – | CC(C)C[C@@H]1NC(=O)[C@@H](C(C)C)NC(=O)[C@@H]2CCCCN2C(=O)[C@@H](CC(=O)O)NC(=O)[C@@H](Cc2c[nH]c3ccccc23)NC1=O [Example 47, cyclo(-DTrp-DAsp-Pip-DVal-Leu-)] (cyclo(L[dW][dD][Pip][dV]))

The next lines start with the compound.

Compound | inhibition at 1.1 µM | 125I-endothelin-1 binding inhibition, Inhibition (%)
CCC[C@@H]1NC(=O)[C@@H](C(C)C)NC(=O)[C@@H]2CCCN2C(=O)[C@@H](CC(=O)O)NC(=O)[C@@H](Cc2c[nH]c3ccccc23)NC1=O [Example 45, cyclo(-DTrp-DAsp-Pro-DVal-Nva-)] (cyclo([Nva][dW][dD]P[dV])) | 85% | –
CC(C)[C@H]1NC(=O)[C@H](CC(=O)O)NC(=O)[C@@H](CC(=O)O)NC(=O)[C@@H](Cc2c[nH]c3ccccc23)NC(=O)[C@H](C)NC1=O [Example 38, cyclo(-DTrp-DAsp-Asp-DVal-Ala-)] (cyclo(A[dW][dD]D[dV])) | 21% | –
CC(C)C[C@@H]1NC(=O)[C@@H](C(C)C)NC(=O)[C@H](CO)NC(=O)[C@@H](CC(=O)O)NC(=O)[C@@H](Cc2c[nH]c3ccccc23)NC1=O [Example 26, cyclo(-DTrp-DAsp-Ser-DVal-Leu-)] (cyclo(L[dW][dD]S[dV])) | 75% | –
CC(C)C[C@@H]1NC(=O)[C@@H](C(C)C)NC(=O)[C@H](CO)NC(=O)[C@@H](CCC(=O)O)NC(=O)[C@@H](Cc2c[nH]c3ccccc23)NC1=O [Example 1, cyclo(-DTrp-DGlu-Ser-DVal-Leu-)] (cyclo(L[dW][dE]S[dV])) | 19% | –
CC(C)C[C@@H]1NC(=O)[C@@H]([C@H](C)O)NC(=O)[C@H](C)NC(=O)[C@@H](CC(=O)O)NC(=O)[C@@H](Cc2c[nH]c3ccccc23)NC1=O [Example 29, cyclo(-DTrp-DAsp-Ala-DThr-Leu-)] (cyclo(A[dT]L[dW][dD])) | 15% | –
CC(C)C[C@@H]1NC(=O)[C@@H](C(C)C)NC(=O)C(C)(C)NC(=O)[C@@H](CC(=O)O)NC(=O)[C@@H](Cc2c[nH]c3ccccc23)NC1=O [Example 61, cyclo(-DTrp-DAsp-Aib-DVal-Leu-)] (cyclo([Aib][dV]L[dW][dD])) | 66% | –
CC(C)C[C@@H]1NC(=O)[C@@H](C(C)C)NC(=O)CN(CCc2c[nH]cn2)C(=O)[C@@H](CC(=O)O)NC(=O)[C@@H](Cc2c[nH]c3ccccc23)NC1=O [Example 85, cyclo(-DTrp-DAsp-IeGly-DVal-Leu-)] (cyclo(L[dW][dD][Gly(N-CH2CH2-imidazol-4-yl)][dV])) | 82% | –
CC(C)C[C@H]1C(=O)N[C@H](Cc2c[nH]c3ccccc23)C(=O)N[C@H](CC(=O)O)C(=O)N2CCC[C@H]2C(=O)N[C@H](C(C)C)C(=O)N1C [Example 69, cyclo(-DTrp-DAsp-Pro-DVal-MeLeu-)] (cyclo([NMeL][dW][dD]P[dV])) | 85% | –
COC(=O)n1cc(C[C@H]2NC(=O)[C@H](CC(C)C)NC(=O)[C@@H](C(C)C)NC(=O)[C@@H]3CCCN3C(=O)[C@@H](CC(=O)O)NC2=O)c2ccccc21 [Example 86, cyclo(-DTrp(COOCH3)-DAsp-Pro-DVal-Leu-)] (cyclo(L[dW](Moc)[dD]P[dV])) | 90% | –
CC(C)C[C@@H]1NC(=O)[C@@H](C(C)C)NC(=O)[C@@H]2CSCN2C(=O)[C@@H](CC(=O)O)NC(=O)[C@@H](Cc2c[nH]c3ccccc23)NC1=O [Example 68, cyclo(-DTrp-DAsp-Thz-DVal-Leu-)] (cyclo(L[dW][dD][Thz][dV])) | 86% | –
cyclo(-DTrp(CHO)-DAsp-Pro-DaIle-Leu-) [Example 53] | – | 89%
CSCC[C@@H]1NC(=O)[C@@H](CC(=O)O)NC(=O)[C@@H](Cc2c[nH]c3ccccc23)NC(=O)[C@H](CC(C)C)NC(=O)[C@@H](C(C)C)NC1=O [Example 14, cyclo(-DTrp-DAsp-Met-DVal-Leu-)] (cyclo(L[dW][dD]M[dV])) | 75% | –
CCC[C@H]1NC(=O)[C@@H]2CCCN2C(=O)[C@@H](CC(=O)O)NC(=O)[C@@H](Cc2c[nH]c3ccccc23)NC(=O)[C@H](CC(C)C)NC1=O [Example 35, cyclo(-DTrp-DAsp-Pro-DNva-Leu-)] (cyclo(L[dW][dD]P[dNva])) | 79% | –
CC(C)C[C@@H]1NC(=O)[C@@H](C(C)C)NC(=O)[C@@H]2CCCN2C(=O)[C@@H](CC(=O)O)NC(=O)[C@@H](Cc2cn(CC(N)=O)c3ccccc23)NC1=O [Example 91, cyclo(-DTrp(CH2 CONH2)-DAsp-Pro-DVal-Leu-)] (cyclo(L[X3][dD]P[dV])) | 23% | –
CC(C)C[C@@H]1NC(=O)[C@@H](c2cccs2)NC(=O)CN(C)C(=O)[C@@H](CC(=O)O)NC(=O)[C@@H](Cc2c[nH]c3ccccc23)NC1=O [Example 72, cyclo(-DTrp-DAsp-Sar-DThg-Leu-)] (cyclo(L[dW][dD][Sar][dGly(2-thienyl)])) | 79% | –
